In patent US6743429B2 (Sherbrooke University, priority 1999, dated 2004):
Where no end group is shown, it is not given here.

Columns and labels:
allergic sheep [1] = test: Metacholine-induced non-specific airway responsiveness in allergic sheep; assay type: in vivo; details: inhaled 0.5 mg in 2 ml PBS
Source text: (§1) Eighteen sheep with a mean weight of 35 kg (range: 24 to 52 kg) were used for this study. […] Ten of these animals were defined as non-allergic and 8 as allergic, based on the absence or presence of both early and late airway responses after a standard inhalation challenge with Ascaris suum antigen. All sheep were allowed a 4-week recovery period after the allergen challenge before experimentation began. For each of the procedures hereafter presented, the unsedated animals were restrained on a standard shopping cart in the prone position and their heads were immobilized. […]
(§2) The techniques used for investigating airway mechanics were again well-validated and standardized procedures (as is usually the case with large mammals). […] Lateral pressure in the trachea was measured with a sidehole catheter (inner diameter=2.5 mm) advanced through and positioned distal to the tip of the endotracheal tube. […] The transpulmonary pressure and flow signals were recorded on a Hewlett Packard (model 7754B, Mass. USA) multichannel recorder, which was linked to a PC 386 Personal Computer (IBM Equipment, Montreal, Quebec) for online calculation of mean RL by dividing the change in transpulmonary pressure by the change in flow at mid-tidal volume (Vt) (obtained by digital integration). […]

allergic sheep [2] = test: Ascaris suum antigen-induced early and late increases in pulmonary resistance in sheep; assay type: in vivo
Source text: as §1, §2

sheep = test: Haemodynamic parameters and baseline SRL after inhaled administration in sheep; assay type: in vivo; details: inhaled increasing doses (CGRP 0.1, 0.25, 0.5 and 1.0 mg/2 ml)
Source text: as §1
Briefly, pleural pressure was estimated via the esophageal balloon catheter (filled with 1 ml of air), which was positioned 5 to 10 cm from the gastroesophageal junction. […] Lateral pressure in the trachea was measured with a sidehole catheter (inner diameter=2.5 mm) advanced through and positioned distal to the tip of the endotracheal tube. […] The transpulmonary pressure and flow signals were recorded on a Hewlett Packard (model 7754B, Mass. USA) multichannel recorder, which was linked to a PC 386 Personal Computer (IBM Equipment, Montreal, Quebec) for online calculation of mean RL by dividing the change in transpulmonary pressure by the change in flow at mid-tidal volume (Vt) (obtained by digital integration). […]

allergic guinea pigs = test: Allergen (ovalbumin)-induced bronchospasm (PIP) in allergic guinea pigs; assay type: in vivo, guinea pig; details: CGRP receptor antagonist given 5 minutes before the allergen challenge
Protocol: Guinea pigs were anaesthetized with xylazine (20 mg/kg, i.m.) and ketamine hydrochloride (130 mg/kg, i.m.). The jugular vein and trachea were cannulated and animals were mechanically ventilated with a constant-volume rodent respirator (Havard, model 683) delivering a tidal volume of 5.5 ml/kg at a frequency of 60 cycles/min via the tracheal cannula. Airway resistance was measured by the overflow technique according to well-validated and standardized procedures. Briefly, ventilation overflow (i.e., the pulmonary insufflation pressure or PIP), was recorded at the side arm of the tracheal cannula by means of a differential pressure transducer (Gould P23 ID) connected to a Grass polygraph (model 7D). Airway responsiveness was assessed by measuring the changes in PIP following i.v. injections of the agonists. Changes in PIP, which were taken as an index of changed airway resistance, were measured and expressed in mm of mercury (mm Hg). Each agonist was injected through the jugular vein cannula in a volume of 100 μl followed by a washout with 200 μl of heparinized-saline (100 units/ml).
The resulting increase in PIP (bronchoconstriction) was compared to responses obtained in control animals i.e. in allergic guinea pigs, which received only saline solution 5 minutes before the i.v. injection of ovalbumin. […]

Question: Which results are given for `CC(C)(C)NCC(O)c1ccc(O)c(CO)c1` (stereo not drawn) [salbutamol]?
Answer: protection against metacholine-induced increase in airway resistance (allergic sheep [1]): 65%; effect on late phase bronchoconstriction to Ascaris suum antigen (allergic sheep [2]; aerosol 0.5 mg in 2 ml PBS pretreatment): does not affect; reduction of the peak of the early phase response to Ascaris suum antigen (allergic sheep [2]; aerosol 0.5 mg in 2 ml PBS, 20 minutes before antigen challenge): 45%; heart rate (sheep): increase in heart rate; mean arterial blood pressure (MAP) (sheep): hypotension

Question: For “hCGRP(8-37) (VTHRLAGLLSRSGGVVKNNFVPTNVGSKAF; ends and bridges not checked; UniProt P06881 90-119, looked up, fragment) [a CGRP receptor antagonist]”, which “magnitude of the allergen-induced bronchospasm versus untreated animals” value (allergic guinea pigs) is on record?
Answer: significant increase
